Source: patent publication US7642261B2, “Use of 1-[4-(5-cyanoindol-3-yl)butyl]-4-(2-carbamoyl-benzofuran-5-yl)-piperazine and its physiologically acceptable salts” (Merck Patent GmbH, priority 2002, dated 2010)

Experiments:
Format in all cases: in vivo
[1] = Intradermal formalin test; conditions: 10 mg/kg p.o.
Method: (§1) Rapid procedures to test pain-relieving properties of drugs are the abdominal constriction (writhing) test according to E. Siegmund et all., Proc. Soc. Exp. Biol. Med. 1957, 95: 729-731 and the intradermal formalin test according to S. Hunskaar et al., J. Neurosci. Meth. 1985, 14: 69-76. For example, 1-[4-(5-cyanoindol-3-y1)butyl]-4-(2-carbamoyl-benzofuran-5-yl)-piperazine hydrochloride at 30 mg/kg p.c. reduced abdominal contrictions by 82%, and 10 mg/kg p.o. reduced the formalin-induced pain response by 79%.

[2] = Cumulative Food Intake / development of body weight, rats or mice; conditions: free access to food
Method: A typical animal model for eating disorders and/or obesity and/or anorexia is named Cumulative Food Intake according to H. C. Jackson, A. M, Needham, L. J. Hutchins, S. E. Mazurkiewicz, D. J. Heal, Br. J. Pharmacol., 1997, 121: 1758-1762, which can be utilized in various species. Usually, rats or mice are given free access to food, and the development of body weight is measured over time. The test can be performed in both starved and non-starved rats or mice. Moreover, chronic or acute administration of a medication can be investigated.
Thus, differential effects on body weight indicating therapeutic efficacy in either obesity or anorexia depending on the dose range used are evident.

rats [3] = test: Animal models of sexual function (behavioural measures for sexual activity); conditions: penile erection, ejaculatory behaviour, mating frequency in male rats, receptive behaviours in female rats
From the text: In animal models, various behavioural measures for sexual function can be used in animal models depending on the targeted dysfunction in humans, e.g. reduced libido, anorgasmia, or ejaculation disorders. Measures for sexual activity in animals include fascilitation or prolongation of penile erection, ejaculatory behaviour or frequency of mating behaviour in male rats, or the percentage of receptive behaviours in female rats [e.g.: S. Ahlenius and K. Larsson, Neurochem. Res., 1997, 22: 1065-1070; S. Ahlenius and K. Larsson, Psychopharmacology, 1998, 137: 374-382; J. Vega-Matuszcyk et al., Pharmacol. Biochem. Behav., 1998, 60: 527-532; J. M. Cantor et al., Psychopharmacology, 1999; 144: 355-362]. 1-[4-(5-cyancindol-3-yl)butyl]-4-(2-carbamoyl-benzofuran-5-yl)-piperazine or one of its physiologically acceptable salts, in particular 1-[4-(5-cyanoindol-3-yl)butyl]-4-(2-carbamoyl-benzofuran-5-yl)-piperazine hydrochloride, were effective on various measures mentioned before.

[4] = Abdominal constriction (writhing) test; conditions: 30 mg/kg p.c.
Method: as §1

rats [5] = test: Models for anxiety associated with posttraumatic stress (cat stressor; hole board, elevated plus maze, acoustic startle); conditions: given after (acute treatment) and before (prophylactic treatment) the cat stressor
From the text: Animal models of anxiety associated with posttraumatic stress in rats utilize the long-lasting behavioural changes induced by exposure to a native stressor. The therapeutic effects of a compound effective for the acute treatment of anxiety associated with posttraumatic stress are modelled by administration of the compound after exposure to the stressor. The therapeutic effects of a compound effective for the prophylactic treatment of anxiety associated with posttraumatic stress are modelled by administration of the compound before exposure to the stressor. Amongst the several behavioral test procedures, the following is most validated [R. E. Adamec and T. Shallow, Physiology Behavior, 1993, 54: 101-109; R. E. Adamec et al., Behav. Neurosci. 1997, 111: 435-449]. […] The hole board consists of a box (60 cm×60 cm) with four evenly spaced holes; the number of poking its head into a hole is counted for 5 minutes. […] The rat is placed in the centre of the arms, and the frequency of attempts to enter an open arm (risk assessment) as well as the time spent on the open and closed arms are measured. In the acoustic startle test, the rat is placed in a plexiglass cylinder, and a series of 20 white noise bursts of 120 dB out of a background noise of 60 dB is applied, and the latency to and the peak startle amplitude are measured. […]

mice or rats = test: Hyperactivity induced by a mixture of dexamphetamine and chlordiazepoxide (model of mania/bipolar disorders); conditions: compared with lithium and valproate
From the text: A typical animal model of mania/bipolar disorders is the hyperactivity induced by a mixture of dexamphetamine and chlordiazepoxide according to A. L. Vale and F. Ratcliffe, Psychopharmacology, 1987; 91: 352-355, and B. J. Cao and N. A. Peng, Eur. J. Pharmacol., 1993; 237: 177-181. The dexamphetamine-chlordiazepoxide mixture induces strong hyperactivity in mice or rats.

mice = test: Marble Burying Test (model for OCSD including OCD); conditions: 3 mg/kg, subcutaneous application
Method: A typical model for OCSD including OCD is the Marble Burying Test according to Y. Ichimaru, T. Egawa, A. Sawa, Jpn. J. Pharmacol. 1995, 68: 65-70.
The apparatus consists of an open cubic box with 25 clean glass marbles evenly spaced on sawdust. Individual mice are placed in the test box, and the number of glass marbles left uncovered after 20 minutes are counted. 1-[4-(5-cyanoindol-3-yl)butyl]-4-(2-carbamoyl-benzofuran-5-yl)-piperazine or one of its physiologically acceptable salts, in particular 1-[4-(5-cyanoindol-3-yl)butyl]-4-(2-carbamoyl-benzofuran-5-yl)-piperazine hydrochloride, following subcutaneous application inhibits mable burying in mice dose-dependently. For example, a dose of 3 mg/kg of 1-[4-(5-cyanoindol-3-yl)butyl]-4-(2-carbamoyl-benzofuran-5-yl)-piperazine hydrochloride nearly completely (92%) inhibits marble burying; equieffective doses of conventional serotonin reuptake inhibitors are e.g. 20 mg/kg for fluvoxamine or 17 mg/kg for fluoxetine and an equieffective dose of the 5-HT1A agonist ipsapirone is 10 mg/kg.

**Q.** Which “reduction of formalin-induced pain response” value [1] does the source give for `Cl.N#Cc1ccc2[nH]cc(CCCCN3CCN(c4ccc5oc(C(N)=O)cc5c4)CC3)c2c1` [1-[4-(5-cyanoindol-3-yl)butyl]-4-(2-carbamoyl-benzofuran-5-yl)-piperazine hydrochloride] here?
**A.** 79%

**Q.** And the “body weight at lower doses” value ([2]; orally for 4 consecutive days, lower doses of up to 50 mg/kg)?
**A.** increased body weight

**Q.** What about the “development of body weight at higher doses” value ([2]; orally up to 360 mg/kg for 4 consecutive days, higher doses) of the same molecule?
**A.** reduced development of body weight

**Q.** What about the “effect on measures for sexual activity” value (rats [3]) of the same molecule?
**A.** effective

**Q.** What about the “reduction of abdominal constrictions” value [4] of the same molecule?
**A.** 82%

**Q.** What about the “effect in models for anxiety associated with posttraumatic stress” value (rats [5]) of the same molecule?
**A.** effective

**Q.** What about the “inhibition of hyperactivity induced by the dexamphetamine-chlordiazepoxide mixture” value (mice or rats) of the same molecule?
**A.** to the same degree as do lithium and valproate

**Q.** And the “inhibition of marble burying” value (mice)?
**A.** 92%
